Measured values from patent US20080275105A1, “Selective Muscle Relaxant and Pharmaceutical Compositions” (UNIVERSIDADE FEDERAL DO RIO DE JANEIROUFRJ, priority 2004, published 2008).
“And” between values parts separate entries of the source, which are not always exact repeats. Equal values may be shown once. “Also recorded” adds a separate entry of the source.

Legend:
[1] = test system: extensor digitorium longus (EDL) muscle; assay: Electrically induced twitch amplitude in fast-fiber skeletal muscle (EDL); assay type: cell-based, mice; details: for EDL twitch amplitude 30 min-Washing (% of the control): 30 min after washing
Protocol: (§1) Male mice weighing 22-28 g were sacrificed through cervical dislocation and the extensor digitorium longus (EDL) and soleus (SOL) muscles were dissected in a Ringer-Krebs solution, whose composition is given in Table 9, at room temperature. The muscles were placed in vertical chambers with a capacity of 10 ml, and were fixed by their ends to the stimulation electrode fixation rod and a power transducer (Grass FT03) for registering muscle twitches. The chamber solution was bubbled continuously with a carbogenic mixture (95% O2/5% CO2) and kept at a temperature of 37° C. The muscles were stimulated electrically through a stimulator (Grass S88) at a frequency of 0.2 Hz, at 37° C. After the stabilization of the muscle twitches (±30 minutes) a control record was taken in the absence of the drug, and subsequently rising concentrations (from 10 μM to 200 μM) of the L294 derivatives were added every ten minutes, diluted in DMSO. […] The signals recorded by the transducer were amplified (Cyberamp) and the isometric tension was digitized (Digidata 1322A) and stored on a computer. The screening and analysis of the experiment was handled through the use of the Axoscope 8.0 program. (Zapata-Sudo, 2003).
(§2) A measurement of the electrically-induced twitch amplitude was selected to assist the effects of the L294 analogs on the skeletal muscle inotropism. One muscle consisting of fast fibers (extensor digitorium longus-EDL) and the other of slow fibers (soleus-SOL) taken from mice were selected for this purpose. Differences in the timing of the twitches between the fast and slow muscles are shown at the faster recording speed. […] Washing the preparation with Krebs solution caused a partial reversion of the effects induced by the L786.

[2] = test system: left ventricle bundles of a rat heart; assay: Isometric tension in ventricular bundles; assay type: cell-based; details: for muscular response in ventricular bundles: concentration not given, alterations not greater than 10%
Protocol: (§3) Once the experiments have been carried out, the findings were subject to statistical analyses being expressed in average ±SEM as a percentage of the control value, and graphs were drawn up using the Sigma Plot 5.0 program to represent the data obtained. For the statistical analysis of the effects on the different muscle tissues, the difference was assessed among the concentrations of the same derivative, using the “t” Student test. In order to ascertain the difference among the derivatives, the one-way ANOVA test was used. The differences were considered as significant for p<0.05. The Cl50 was expressed as an average ±SEM of the values obtained for each experiment through non-linear regression based on the y=yo+ae^−bx equation.
(§4) After anesthesia with ethyl ether, male Wistar rats weighing between 240-280 grams were sacrificed through cervical dislocation. The heart was removed rapidly and the papillary muscle and the ventricular bundles were dissected in Tyrode's solution, whose composition is given in Table 2 below, at room temperature. The muscles were placed in vertical chambers with a capacity of 10 mL and fixed at their extremities: the lower portion to a hook located in the stimulation electrode fixation rod and the upper portion connected to a power transducer (Grass FT03) for recording the muscle twitches.
(§5) The muscles were stimulated electrically with supra-maximum voltage (50-60 V) through a stimulator (Grass S88) at a frequency of 1.0 Hz. The signals captured by the transducer were amplified (Cyberamp 380, Axon Instruments) and the isometric tension was digitized (Digidata 1322A, Axon Instruments) and stored on a computer. The screening and analysis of the experiment was handled through the Axoscope 8.0 program (Axon Instruments) (Sudo & cols., 2001). The chamber solution was bubbled continuously with a carbogenic mixture (95% O2/5% CO2) and kept at a temperature of 37° C.
(§6) After the stabilization of the muscle twitches (approximately 30 min) the records were carried out in the absence (control) and presence of rising concentrations (10 to 100 μM) of the different L294 analogs, diluted in DMSO. The records were carried out in pairs (two papillary and two ventricle) thus allowing the control experiments to be carried out in one of the pairs, meaning with rising quantities of DMSO equivalent to those used to dilute the substances. The reversibility of the effect of the substances was investigated at the end of each experiment, noting the recovery of the muscle twitches after bathing the preparation with Tyrode's solution.

[3] = test system: aorta rings with no preserved endothelium; assay: Phenylephrine-induced contracture in aorta rings without endothelium; assay type: cell-based, rat; details: phenylephrine 10 μM; for vasodilatory / relaxing effect on phenylephrine contracture, without endothelium: result in words; for IC50: Rattus norvegicus, without endothelium, six experiments, read-out: CI50 (MM) Average ± SEM
Protocol: as §3
(§7) Male Wistar rats weighing between 240-280 grams were sacrificed through dislocation of the cervical column under anesthesia using ethyl ether. The aorta artery was removed and transferred to a Petri dish containing modified Tyrode's solution whose composition is described in Table 3 below, where the vessel was cleaned and the connective tissue was removed. According to the scheduled Experiment Protocol, the vascular endothelium was removed mechanically with the assistance of a polyethylene rod. The artery was divided into rings with a width of 2-3 mm. Two hooks were placed in the wall of the vessel in order to record the tension generated by the muscle in a transversal direction. To do so, one of the hooks was tied to a fixed point in the chamber and the other to a power transducer (FT 03) for recording the isometric tension. The tension generated by the muscle was transformed into a digitized electric signal (Digidata 1322A) and stored in a computer for subsequent analysis using the Axoscope 8.0 program (Axon Instruments, Inc). The chamber was filled with Krebs solution, oxygenated and kept at a temperature of 37° C.
(§8) After stabilizing the preparation, approximately 120 minutes, the Experiment Protocol began. Initially, in order to identify the presence or absence of the vascular endothelium, the preparation was exposed to phenylephrine (10 μM) and when the contracture in response to this substance was stabilized, acetylcholine (10 μM) was added to the nutrient solution. Relaxation of over 80% in response to the acetylcholine indicated the full integrity of the endothelium and relaxation of less than 10% indicated the absence of endothelium. The tissues in which the relaxation intensity fell between >10% and <80% were discarded. In order to investigate the vasodilator effect of the different L294 analogs, they were added to the experiment chambers in rising concentration after the contracture stabilization of the vessel induced by phenylephrine. The tension registered after treatment with each of the L294 analog concentrations was normalized as a function of the amplitude of the contracture triggered by phenylephrine. For the purpose of comparing the potency of some of the L294 analogs, the Cl50 was determined for each experiment using the y=yo+ae^−bx equation and their mean was used for the statistical analysis.
The importance of the presence of vascular endothelium in the vasodilatory action of the L294 analogs was assessed in experiments in which these cells were removed mechanically. […] When the findings of the experiments without the endothelium were analyzed as a whole, the absence of the L790 effect was confirmed. […] The maximum relaxation caused by the L787 and L789 analogs was less than 50% of the control, and the other analogs caused relaxation in the following decreasing order of efficacy: L785>L788>L786. Once again, attention is drawn to the marked efficiency of the L785 and L788 analogs.

[4] = test system: soleus (SOL) muscle; assay: Electrically induced twitch amplitude in slow-fiber skeletal muscle (SOL); assay type: cell-based, mice; details: for SOL twitch amplitude 30 min-Washing (% of the control): 30 min after washing
Protocol: as §1, §2

[5] = test system: rat papillary muscle; assay: Isometric tension (electrically stimulated twitches) in papillary muscle; assay type: cell-based; details: for amplitude of the papillary muscle twitches: 100 μM, 1 Hz stimulation; for maximum alterations to the papillary muscle twitches: 10 to 100 μM, not significant
Protocol: as §3, §4, §5, §6

[6] = test system: rat aorta rings with the vascular endothelium preserved; assay: Phenylephrine-induced contracture in aorta rings with preserved endothelium; assay type: cell-based; details: phenylephrine 10 μM; for IC50: Rattus norvegicus, with endothelium, six experiments, read-out: CI50 (μM) Average ± SEM
Protocol: as §3, §7, §8

[7] = test system: rat aorta rings with no endothelium; assay: KCl-induced contracture in aorta rings without endothelium; assay type: cell-based; details: Rattus norvegicus; KCl 40 mM; without endothelium; six experiments; read-out: CI50 (μM) Average ± SEM
Protocol: as §3, §7
as §8, with “[…] […]” for “In order to investigate the vasodilator effect of the different L294 analogs, they were added to the experiment chambers in rising concentration after the contracture stabilization of the vessel induced by phenylephrine. The tension registered after treatment with each of the L294 analog concentrations was normalized as a function of the amplitude of the contracture triggered by phenylephrine.”

[8] = test system: rat aorta rings with preserved endothelium; assay: KCl-induced contracture in aorta rings with preserved endothelium; assay type: cell-based; details: KCl 40 mM
Protocol: as §3, §7, §8
The effects of the L294 analogs were investigated in rat aorta rings with preserved endothelium whose contracture was induced by increasing the extra-cellular concentration of KCl to 40 mM. Of the seven L294 analogs, this test was carried out only with the L785, L786, L789 and L790, in this group of experiments.

[9] = test system: corpus cavernosa of a male guinea pig; assay: Phenylephrine-induced contracture in corpus cavernosa; assay type: cell-based; details: 200 μM; phenylephrine 30 μM
Protocol: It is noted that L788 concentration-dependent inhibition occurred for the contractile response of the corpus cavernosa.
This same Protocol Experiment was repeated for the other derivatives being tested and for the solvent separately (FIG. 11). It was noted that only L788 caused significant reaction, where the amplitude of the contracture at a concentration of 200 μM was 46.5±8.8% of the control. […] The effect of the solvent (DMSO) was tested at volumes corresponding to those used for the derivatives, and was unable to cause any significant alterations to the contractility of this tissue.

IC50 [6] [µM]	IC50 [7] [µM]	IC50 [3] [µM]	SMILES	EDL twitch amplitude 200 μM (% of the control) [1]	muscular response in ventricular bundles [2]	vasodilatory / relaxing effect on phenylephrine contracture, without endothelium [3]	SOL twitch amplitude 200 μM (% of the control) [4]	SOL twitch amplitude 30 min-Washing (% of the control) [4]	amplitude of the papillary muscle twitches [5]	maximum alterations to the papillary muscle twitches [5]	maximum inhibition levels of phenylephrine contracture, with endothelium [6] [%]	amplitude of the KCl contracture, with endothelium ([8]; 200 μM stated for L790)	CI50 (μM) Average ± SEM ([8]; with endothelium, six experiments)	inhibition of the KCl contracture, with endothelium ([8]; up to 100 μM, result in words)	EDL twitch amplitude 30 min-Washing (% of the control) [1]	amplitude of the phenylephrine-induced contracture of the corpus cavernosa [9]	muscle twitches / contractility in ventricular bundles ([2]; 100 μM)	amplitude of the phenylephrine contracture in rings with whole endothelium ([6]; maximum effect)
173 ± 26.7	–	–	O=C(NNCc1cccs1)c1ccc2c(c1)OCO2 [L791, 1,3-Benzodioxol-5-carboxylic acid, N′-thiophene-2-ylmethyl-hydrazide]	45.8±6.9 % of the control and 45.9 ± 6.9 % of the control	89.4±4.5 % of the control	did not result in any vasodilatory activity; also recorded: lacked vasodilatory action	69.3±4.8 % of the control	74.4 ± 13.8 % of the control	did not significantly alter the contractile response	92.4±2.5 % of the control	59.2±7.8	–	–	–	–	–	–	–
216 ± 39.3	123 ± 17.3	–	O=C(N/N=C/c1ccc([N+](=O)[O-])s1)c1ccc2c(c1)OCO2 [L790, 1,3-Benzodioxol-5-carboxylic acid, [1-(5-nitro-thiophene-2-yl)-meth-(E)-ylidene]-hydrazide]	52.2±3.4 % of the control and 52.2 ± 3.8 % of the control	92.3±1.6 % of the control	absence of the relaxing effect; also recorded: lacked vasodilatory action; also recorded: did not cause a significant relaxing effect	71.3±5.2 % of the control	70.8 ± 7.7 % of the control	–	87.8±5.6 % of the control	47.0±5.9	74.9±8.8 % of the control	cannot be determined	insignificant	49.2 ± 5.1 % of the control	–	–	–
67.9 ± 6.5	–	65.7 ± 8	C=CCN(/N=C/c1cccs1)C(=O)c1ccc2c(c1)OCO2 [L788, 1,3-Benzodioxol-5-carboxylic acid, N′-[1-thiophene-2-yl-meth-(E)-ylidene]-N-allyl-hydrazide]	47.6±5.4 % of the control	–	–	45.1±5.1 % of the control	37.8 ± 4.7 % of the control	81.2±2.6 % of the control	–	–	–	–	–	26.8 ± 2.3 % of the control	46.5±8.8 % of the control	74.9±5.1 % of the control	10.4±3.2 % of the control
293 ± 76	–	273 ± 22	Cc1ccc(/C=N/NC(=O)c2ccc3c(c2)OCO3)s1 [L787, 1,3-Benzodioxol-5-carboxylic acid, [1-(5-methyl-thiophene-2-yl)-meth-(E)-ylidene]-hydrazide]	37.8±3.5 % of the control	105±6.9 % of the control	–	47.6±4.2 % of the control	–	–	115.0±5.0 % of the control	37.1±7.0	–	–	–	38.6 ± 2.5 % of the control	–	–	–
